Laboratory results as given in patent US12351574B2, “Selective ligands for modulation of GIRK channels” (Northeastern University, priority 2018, dated 2025).

Molecular target: T1, GIRK1/4 (Homo sapiens, UniProt P48544+P48549)
T1 sequence (P48549 1-501): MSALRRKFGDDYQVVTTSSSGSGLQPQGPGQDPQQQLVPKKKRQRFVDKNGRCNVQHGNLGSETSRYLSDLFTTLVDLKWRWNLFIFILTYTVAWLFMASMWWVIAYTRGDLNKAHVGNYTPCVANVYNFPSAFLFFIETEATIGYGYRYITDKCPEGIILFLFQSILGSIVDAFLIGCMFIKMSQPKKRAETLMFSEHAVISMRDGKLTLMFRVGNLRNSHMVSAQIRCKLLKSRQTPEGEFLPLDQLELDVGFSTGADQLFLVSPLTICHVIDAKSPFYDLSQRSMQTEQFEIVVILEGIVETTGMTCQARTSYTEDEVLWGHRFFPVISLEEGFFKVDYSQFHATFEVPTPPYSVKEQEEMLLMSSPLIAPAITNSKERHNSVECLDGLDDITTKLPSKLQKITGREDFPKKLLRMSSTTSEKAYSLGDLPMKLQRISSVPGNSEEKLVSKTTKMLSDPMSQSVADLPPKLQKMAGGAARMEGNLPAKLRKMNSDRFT
T1 sequence (P48544 1-419): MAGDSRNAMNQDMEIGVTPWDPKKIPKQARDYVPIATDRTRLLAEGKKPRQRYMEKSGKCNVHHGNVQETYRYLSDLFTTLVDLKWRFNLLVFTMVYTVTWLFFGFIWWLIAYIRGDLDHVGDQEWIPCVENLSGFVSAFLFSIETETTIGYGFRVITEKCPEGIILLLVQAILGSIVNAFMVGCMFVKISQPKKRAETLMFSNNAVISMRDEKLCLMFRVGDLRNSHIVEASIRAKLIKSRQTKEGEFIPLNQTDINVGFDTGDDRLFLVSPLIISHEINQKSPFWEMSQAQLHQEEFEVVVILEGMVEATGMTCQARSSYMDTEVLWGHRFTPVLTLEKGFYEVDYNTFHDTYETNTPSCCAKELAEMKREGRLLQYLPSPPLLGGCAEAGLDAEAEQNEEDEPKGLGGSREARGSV
Experiment: thallium flux assay, cells expressing GIRK1/4
Type: cell-based
Set-up: expressed in transfected cells
Excerpt: Previous studies have utilized the thallium flux Assay to test the effects of ML297 and related compounds in cells coexpressing GIRK1/2 and GIRK1/4. In order to fully investigate the selective activation of GAT compounds, the inventors also utilized this assay. […] To determine the differences between the thallium flux and TEVC assays, the inventors computationally tested whether the binding of selective compounds could affect the selectivity of the pore area. The Cα RMSF of the region between the M1 and M2 helices of the channel were calculated during the MD simulation with or without ML297 and the selective GAT compounds in the GIRK2/2^FD and GIRK4/4^FD systems (FIGS. 60A-60B). […] To further test this idea, the inventors compared the 10 μM GAT1508-induced thallium and potassium currents in oocytes expressing GIRK1/2 and GIRK1/4 by TEVC recording (FIG. 61B). […] In an effort to enhance the current, the TEVC recording was performed at a holding potential of −100 mV.

| activation of GIRK1/4 in thallium flux assay (in words) (concentration-response, FIG. 61A) | EC50 (thallium flux assay) [nM] | Structure (SMILES) |
| --- | --- | --- |
| also activated the cardiac heteromer | – | Cc1cc(NC(=O)Nc2ccc(Br)s2)n(-c2ccccc2)n1 [GAT1508, 1-(5-bromothiophen-2-yl)-3-(3-methyl-1-phenyl-1H-pyrazol-5-yl)urea] |
| – | ~2890 | Cc1cc(NC(=O)Nc2ccc(F)c(F)c2)n(-c2ccccc2)n1 [ML297, reference compound] |
